Patent publication EP0934300B1, “THE PREPARATION AND USE OF ORTHO-S[…] AS MATRIX METALLOPROTEINASE AND TACE INHIBITORS” (American Cyanamid Company, priority 1996, dated 1998)
pIC50: −log10 of the molar value.

Legend:
Type in all cases: biochemical
MMP-9 = MMP-9 (Homo sapiens, UniProt P14780); assay: MMP-9 inhibition (thiopeptide or fluorescent peptide substrate assay); settings: for inhibition at 10 µM: concentration 10 µM
Experimental: (§1) These assays are based on the cleavage of a thiopeptide substrates such as Ac-Pro-Leu-Gly(2mercapto-4 methyl-pentanoyl)-Leu-Gly-OEt by the matrix metalloproteinases MMP-1, MMP-13 (collagenases) or MMP-9 (gelatinase), which results in the release of a substrate product that reacts colorimetrically with DTNB (5,5'-dithiobis(2-nitro-benzoic acid)). The enzyme activity is measured by the rate of the color increase. The thiopeptide substrate is made up fresh as a 20 mM stock in 100% DMSO and the DTNB is dissolved in 100% DMSO as a 100 mM stock and stored in the dark at room temperature. Both the substrate and DTNB are diluted together to 1 mM with substrate buffer (50 mM HEPES pH 7.5, 5 mM CaCl2) before use. The stock of enzyme is diluted with assay buffer (50 mM HEPES, pH 7.5, 5 mM CaCl2, 0.02% Brij) to the desired final concentration.
(§2) Alternatively, a fluorescent peptide substrate is used. In this assay, the peptide substrate contains a fluorescent group and a quenching group. Upon cleavage of the substrate by an MMP, the fluorescence that is generated is quantitated on the fluorescence plate reader. The assay is run in HCBC assay buffer (50mM HEPES, pH 7.0, 5 mM Ca^+2, 0.02% Brij, 0.5% Cysteine), with human recombinant MMP-1, MMP-9, or MMP-13. The substrate is dissolved in methanol and stored frozen in 1 mM aliquots. For the assay, substrate and enzymes are diluted in HCBC buffer to the desired concentrations. Compounds are added to the 96 well plate containing enzyme and the reaction is started by the addition of substrate. The reaction is read (excitation 340 nm, emission 444 nm) for 10 min. and the increase in fluorescence over time is plotted as a linear line.
(§3) For either the thiopeptide or fluorescent peptide assays, the slope of the line is calculated and represents the reaction rate. The linearity of the reaction rate is confirmed (r^2 >0.85). The mean (x±sem) of the control rate is calculated and compared for statistical significance (p<0.05) with drug-treated rates using Dunnett's multiple comparison test.

MMP-1 = target: T1, MMP-1 (Homo sapiens, UniProt P03956); assay: MMP-1 inhibition (thiopeptide or fluorescent peptide substrate assay); settings: for inhibition at 1 µM: read-out: MMP-1 % inhibition, concentration 1 µM
T1 sequence (P03956 100-469): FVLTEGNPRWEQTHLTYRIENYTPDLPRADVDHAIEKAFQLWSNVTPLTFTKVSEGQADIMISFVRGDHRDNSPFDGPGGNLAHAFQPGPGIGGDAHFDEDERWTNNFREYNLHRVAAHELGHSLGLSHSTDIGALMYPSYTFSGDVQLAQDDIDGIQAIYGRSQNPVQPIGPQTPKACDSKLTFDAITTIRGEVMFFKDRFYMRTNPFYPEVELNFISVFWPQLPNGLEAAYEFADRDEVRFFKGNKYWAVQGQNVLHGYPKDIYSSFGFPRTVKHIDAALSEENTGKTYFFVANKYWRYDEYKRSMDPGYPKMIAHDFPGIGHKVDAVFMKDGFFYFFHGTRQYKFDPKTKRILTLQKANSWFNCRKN
Experimental: as §1, §2, §3

MMP-13 = MMP-13 (Homo sapiens, UniProt P45452); assay: MMP-13 inhibition (thiopeptide or fluorescent peptide substrate assay)
Experimental: Alternatively, a fluorescent peptide substrate is used. In this assay, the peptide substrate contains a fluorescent group and a quenching group. Upon cleavage of the substrate by an MMP, the fluorescence that is generated is quantitated on the fluorescence plate reader. […] The substrate is dissolved in methanol and stored frozen in 1 mM aliquots. For the assay, substrate and enzymes are diluted in HCBC buffer to the desired concentrations. Compounds are added to the 96 well plate containing enzyme and the reaction is started by the addition of substrate.

TACE = target: T2, TACE (Homo sapiens, UniProt P78536); assay: TACE inhibition (fluorescent peptidyl substrate assay)
T2 construct: purchased Immunex
T2 sequence (P78536 215-824): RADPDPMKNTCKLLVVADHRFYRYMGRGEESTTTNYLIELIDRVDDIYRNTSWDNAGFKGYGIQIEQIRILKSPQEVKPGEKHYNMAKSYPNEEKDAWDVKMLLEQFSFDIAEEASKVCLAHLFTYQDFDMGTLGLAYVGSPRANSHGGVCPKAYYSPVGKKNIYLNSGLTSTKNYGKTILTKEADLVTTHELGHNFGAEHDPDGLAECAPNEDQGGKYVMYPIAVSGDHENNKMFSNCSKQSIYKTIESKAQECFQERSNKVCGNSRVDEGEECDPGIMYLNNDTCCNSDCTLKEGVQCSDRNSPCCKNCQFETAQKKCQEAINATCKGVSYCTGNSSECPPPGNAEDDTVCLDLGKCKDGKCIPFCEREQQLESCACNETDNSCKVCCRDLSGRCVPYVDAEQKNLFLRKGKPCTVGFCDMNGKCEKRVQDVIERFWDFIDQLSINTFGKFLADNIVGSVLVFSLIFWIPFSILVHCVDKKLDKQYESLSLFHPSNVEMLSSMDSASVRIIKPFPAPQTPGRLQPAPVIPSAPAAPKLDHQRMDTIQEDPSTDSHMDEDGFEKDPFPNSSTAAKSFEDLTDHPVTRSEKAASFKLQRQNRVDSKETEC
Experimental: Using 96-well black microtiter plates, each well receives a solution composed of 10 µL TACE (Immunex, final concentration 1µg/mL), 70µL Tris buffer, pH 7.4 containing 10% glycerol (final concentration 10 mM), and 10 µL of test compound solution in DMSO (final concentration 1µM, DMSO concentration <1%) and incubated for 10 minutes at room temperature.
The reaction is read (excitation 340 nm, emission 420 nm) for 10 min. and the increase in fluorescence over time is plotted as a linear line. The slope of the line is calculated and represents the reaction rate.

Chain of MMP-9 (P14780 94-707): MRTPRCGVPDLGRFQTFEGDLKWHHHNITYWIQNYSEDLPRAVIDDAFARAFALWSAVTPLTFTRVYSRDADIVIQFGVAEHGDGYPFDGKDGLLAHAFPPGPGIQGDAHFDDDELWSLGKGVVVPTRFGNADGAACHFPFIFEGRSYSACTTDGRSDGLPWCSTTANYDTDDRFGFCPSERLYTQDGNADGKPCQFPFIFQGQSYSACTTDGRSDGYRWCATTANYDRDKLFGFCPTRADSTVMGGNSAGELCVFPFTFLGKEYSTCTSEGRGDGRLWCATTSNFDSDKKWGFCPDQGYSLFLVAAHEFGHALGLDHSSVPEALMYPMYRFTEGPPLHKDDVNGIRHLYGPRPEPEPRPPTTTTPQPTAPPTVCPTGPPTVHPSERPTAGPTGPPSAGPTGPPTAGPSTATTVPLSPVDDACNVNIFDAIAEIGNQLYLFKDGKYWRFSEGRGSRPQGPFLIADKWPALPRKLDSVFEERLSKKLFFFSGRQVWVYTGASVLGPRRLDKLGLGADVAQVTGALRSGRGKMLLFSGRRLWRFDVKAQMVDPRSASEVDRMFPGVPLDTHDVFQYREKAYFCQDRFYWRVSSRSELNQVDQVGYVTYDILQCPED

C#Cc1scc(C(=O)NO)c1N(Cc1ccccc1)S(=O)(=O)c1ccc(OC)cc1 [Example 23, 4-[Benzyl-(4-methoxy-benzenesulfonyl)-amino]-5-ethynyl-thiophene-3-carboxylic acid hydroxyamide]
inhibition at 300 µM (MMP-9; read-out: MMP-9 % inhibition, concentration 300 µM): 38.4% | inhibition at 1 µM (MMP-1): 48.9% | inhibition at 300 µM (MMP-13; read-out: MMP-13 % inhibition): 35%

COc1ccc(S(=O)(=O)N(Cc2cccnc2)c2c(C(=O)NO)csc2Br)cc1 [Example 26, 5-Bromo-4-[(4-methoxy-benzenesulfonyl)-pyridin-3-ylmethyl-amino]-thiophene-3-carboxylic acid hydroxyamide]
pIC50 (MMP-9): 7.15 | inhibition at 1 µM (TACE; concentration 1 µM): 42% | pIC50 (MMP-1): 6.00

COc1ccc(S(=O)(=O)N(Cc2ccccc2)c2c(C(=O)NO)cnn2C)cc1 [Example 15, 5-[Benzyl-(4-methoxy-benzenesulfonyl)-amino]-1-methyl-1H-pyrazole-4-carboxylic acid hydroxyamide]
pIC50 (MMP-9): 6.03 | inhibition at 1 µM (MMP-1): 22.1%

COc1ccc(S(=O)(=O)N(Cc2ccccc2)c2c(C)csc2C(=O)NO)cc1 [Example 16, 3-[Benzyl-(4-methoxy-benzenesulfonyl)-amino]-4-methyl-thiophene-2-carboxylic acid hydroxyamide]
pIC50 (MMP-9): 6.98

COc1ccc(S(=O)(=O)N(Cc2ccccc2)c2ccsc2C(=O)NO)cc1 [Example 13, 3-[Benzyl-(4-methoxy-benzenesulfonyl)-amino]-thiophene-2-carboxylic acid hydroxyamide]
inhibition at 10 µM (MMP-9; read-out: MMP-9 % inhibition): 57.3% | inhibition at 1 µM (MMP-1): 19.3%

COc1ccc(S(=O)(=O)N(Cc2ccccc2)c2cscc2C(=O)NO)cc1 [Example 14, 4-[Benzyl-(4-methoxy-benzenesulfonyl)-amino]-thiophene-3-carboxylic acid hydroxyamide]
inhibition at 10 µM (MMP-9; read-out: MMP-9 % inhibition): 66.8% | inhibition at 1 µM (MMP-1): 40%

COc1ccc(S(=O)(=O)N(Cc2ccccc2)c2c(C(=O)NO)cc(OC)nc2OC)cc1 [Example 33, 3-[Benzyl-(4-methoxy-benzenesulfonyl)-amino]-N-hydroxy-2,6-dimethoxyisonicotinamide]
pIC50 (MMP-9): 7.82 | pIC50 (TACE): 6.53 | pIC50 (MMP-13): 7.33

COc1ccc(S(=O)(=O)N(Cc2ccccc2)c2c(C(=O)NO)csc2Br)cc1 [Example 20, 4-[Benzyl-(4-methoxy-benzenesulfonyl)-amino]-5-bromo-thiophene-3-carboxylic acid hydroxyamide]
pIC50 (MMP-9): 6.63 | pIC50 (MMP-1): 6.19 | pIC50 (MMP-13): 6.33
